Reference: PubChem BioAssay AID250 (DTP/NCI, 2004)
Where “and” joins values, the source holds several entries; their conditions need not be identical. Equal values may be shown once. Inconclusive results and toxic doses are left out.

System: BDF1 mice, L1210 leukemia sc, survival T/C
Assay: NCI In Vivo Anticancer Drug Screen. Data for tumor model L1210 Leukemia (subcutaneous) in B6D2F1 (BDF1) mice
Conditions: endpoint: median survival time, higher = longer survival
How it was run: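 Tumors were transplanted into mice, the animals were treated with compound, survival or tumor size was then measured, and treated values were divided by vehicle-control values.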

[1] = dose: 108.0 mg/kg/injection, schedule: Q01DX Z (sc), vehicle: methylcellulose (MC)
[2] = dose: 180.0 mg/kg/injection, schedule: Q01DX Z (sc), vehicle: methylcellulose (MC)
[3] = dose: 23.0 mg/kg/injection, schedule: Q01DX Z (sc), vehicle: methylcellulose (MC)
[4] = dose: 65.0 mg/kg/injection, schedule: Q01DX Z (sc), vehicle: methylcellulose (MC)
[5] = dose: 300.0 mg/kg/injection, schedule: Q01DX Z (sc), vehicle: methylcellulose (MC)

CCCCNc1ncnc2c1cnn2C
T/C (dose: 23.3 mg/kg/injection, schedule: Q01DX Z (sc), vehicle: methylcellulose (MC)): 105 % of control
T/C (dose: 38.9 mg/kg/injection, schedule: Q01DX Z (sc), vehicle: methylcellulose (MC)): 110 % of control
T/C (dose: 64.8 mg/kg/injection, schedule: Q01DX Z (sc), vehicle: methylcellulose (MC)): 110 % of control
T/C [1]: 110 % of control
T/C [2]: 100 % of control

COc1cc2cc3c4cc(OC)c(OC)cc4cc[n+]3c(C)c2cc1OC
T/C (dose: 100.0 mg/kg/injection, schedule: Q01DX009 (sc), vehicle: saline): 97 % of control and 100 % of control
T/C (dose: 200.0 mg/kg/injection, schedule: Q01DX009 (sc), vehicle: saline): 97 % of control and 100 % of control
T/C (dose: 400.0 mg/kg/injection, schedule: Q01DX009 (sc), vehicle: saline): 99 % of control and 100 % of control
T/C (dose: 800.0 mg/kg/injection, schedule: Q01DX009 (sc), vehicle: saline): 100 % of control and 101 % of control
T/C (dose: 1600.0 mg/kg/injection, schedule: Q01DX009 (sc), vehicle: saline): 97 % of control and 100 % of control

CS(=O)(=O)OCCCCOS(C)(=O)=O
T/C (dose: 6.25 mg/kg/injection, schedule: Q01DX009 (ip), vehicle: Klucel (hydroxypropylcellulose) (HPC)): 93 % of control
T/C (dose: 6.25 mg/kg/injection, schedule: Q01DX009 (sc), vehicle: Klucel (hydroxypropylcellulose) (HPC)): 97 % of control
T/C (dose: 12.5 mg/kg/injection, schedule: Q01DX009 (ip), vehicle: Klucel (hydroxypropylcellulose) (HPC)): 103 % of control
T/C (dose: 12.5 mg/kg/injection, schedule: Q01DX009 (sc), vehicle: Klucel (hydroxypropylcellulose) (HPC)): 96 % of control
T/C [3]: 103 % of control
T/C (dose: 25.0 mg/kg/injection, schedule: Q01DX009 (ip), vehicle: Klucel (hydroxypropylcellulose) (HPC)): 106 % of control
T/C (dose: 25.0 mg/kg/injection, schedule: Q01DX009 (sc), vehicle: Klucel (hydroxypropylcellulose) (HPC)): 105 % of control
T/C (dose: 47.0 mg/kg/injection, schedule: Q01DX Z (sc), vehicle: methylcellulose (MC)): 105 % of control
T/C (dose: 50.0 mg/kg/injection, schedule: Q01DX009 (ip), vehicle: Klucel (hydroxypropylcellulose) (HPC)): 101 % of control
T/C (dose: 50.0 mg/kg/injection, schedule: Q01DX009 (sc), vehicle: Klucel (hydroxypropylcellulose) (HPC)): 96 % of control
T/C [4]: 96 % of control
T/C (dose: 78.0 mg/kg/injection, schedule: Q01DX Z (sc), vehicle: methylcellulose (MC)): 110 % of control
T/C [1]: 96 % of control
T/C (dose: 130.0 mg/kg/injection, schedule: Q01DX Z (sc), vehicle: methylcellulose (MC)): 100 % of control
T/C [2]: 103 % of control
T/C [5]: 100 % of control

C[n+]1c2cc(N)ccc2cc2ccc(N)cc21
T/C (dose: 23.0 mg/kg/injection, schedule: Q01DX Z (sc), vehicle: water): 90 % of control and 100 % of control

CS(=O)(=O)OCC(O)C(O)COS(C)(=O)=O (stereo not given)
T/C (dose: 39.0 mg/kg/injection, schedule: Q01DX Z (sc), vehicle: saline): 95 % of control
T/C (dose: 65.0 mg/kg/injection, schedule: Q01DX Z (sc), vehicle: saline): 91 % of control
T/C (dose: 108.0 mg/kg/injection, schedule: Q01DX Z (sc), vehicle: saline): 91 % of control
T/C (dose: 180.0 mg/kg/injection, schedule: Q01DX Z (sc), vehicle: saline): 91 % of control
T/C (dose: 300.0 mg/kg/injection, schedule: Q01DX Z (sc), vehicle: saline): 100 % of control

C[C@]12C=CC(=O)C=C1CC[C@@H]1[C@@H]2CC[C@]2(C)OC(=O)CC[C@@H]12
T/C [3]: 100 % of control
T/C (dose: 39.0 mg/kg/injection, schedule: Q01DX Z (sc), vehicle: methylcellulose (MC)): 100 % of control
T/C [4]: 100 % of control
T/C [2]: 100 % of control
T/C [5]: 100 % of control
T/C (dose: 500.0 mg/kg/injection, schedule: Q01DX Z (sc), vehicle: methylcellulose (MC)): 100 % of control

N[C@H](C(=O)O)[C@@H]1CC(Cl)=NO1
T/C (dose: 1.0 mg/kg/injection, schedule: Q01DX009 (sc), vehicle: saline): 113 % of control
T/C (dose: 2.0 mg/kg/injection, schedule: Q01DX009 (sc), vehicle: saline): 150 % of control
T/C (dose: 4.0 mg/kg/injection, schedule: Q01DX009 (sc), vehicle: saline): 159 % of control
T/C (dose: 8.0 mg/kg/injection, schedule: Q01DX009 (sc), vehicle: saline): 151 % of control and 172 % of control
T/C (dose: 16.0 mg/kg/injection, schedule: Q01DX009 (sc), vehicle: saline): 162 % of control
T/C (dose: 32.0 mg/kg/injection, schedule: Q01DX009 (sc), vehicle: saline): 159 % of control
T/C (dose: 64.0 mg/kg/injection, schedule: Q01DX009 (sc), vehicle: saline): 154 % of control

O=C1CN(CCN2CC(=O)NC(=O)C2)CC(=O)N1
T/C (dose: 8.4 mg/kg/injection, schedule: Q03HX024 (sc), vehicle: Klucel (hydroxypropylcellulose) (HPC)): 160 % of control
T/C (dose: 12.5 mg/kg/injection, schedule: Q01DX009 (ip), vehicle: steriod suspending solution): 115 % of control
T/C (dose: 12.5 mg/kg/injection, schedule: Q01DX009 (sc), vehicle: steriod suspending solution): 110 % of control
T/C (dose: 23.0 mg/kg/injection, schedule: Q03HX024 (sc), vehicle: Klucel (hydroxypropylcellulose) (HPC)): 165 % of control
T/C (dose: 25.0 mg/kg/injection, schedule: Q01DX009 (ip), vehicle: steriod suspending solution): 120 % of control
T/C (dose: 25.0 mg/kg/injection, schedule: Q01DX009 (sc), vehicle: steriod suspending solution): 100 % of control
T/C (dose: 39.0 mg/kg/injection, schedule: Q03HX024 (sc), vehicle: Klucel (hydroxypropylcellulose) (HPC)): 120 % of control
T/C (dose: 65.0 mg/kg/injection, schedule: Q03HX024 (sc), vehicle: Klucel (hydroxypropylcellulose) (HPC)): 120 % of control
T/C (dose: 100.0 mg/kg/injection, schedule: Q01DX009 (ip), vehicle: steriod suspending solution): 165 % of control
T/C (dose: 100.0 mg/kg/injection, schedule: Q01DX009 (sc), vehicle: steriod suspending solution): 105 % of control and 120 % of control
T/C (dose: 100.0 mg/kg/injection, schedule: Q04DX003 (ip), vehicle: steriod suspending solution): 105 % of control
T/C (dose: 100.0 mg/kg/injection, schedule: Q04DX003 (sc), vehicle: steriod suspending solution): 100 % of control and 110 % of control
T/C (dose: 200.0 mg/kg/injection, schedule: Q01DX009 (ip), vehicle: steriod suspending solution): 100 % of control
T/C (dose: 200.0 mg/kg/injection, schedule: Q01DX009 (sc), vehicle: steriod suspending solution): 90 % of control
T/C (dose: 200.0 mg/kg/injection, schedule: Q04DX003 (ip), vehicle: steriod suspending solution): 100 % of control
T/C (dose: 200.0 mg/kg/injection, schedule: Q04DX003 (sc), vehicle: steriod suspending solution): 105 % of control and 115 % of control
T/C (dose: 300.0 mg/kg/injection, schedule: Q01DX009 (sc), vehicle: Klucel (hydroxypropylcellulose) (HPC)): 120 % of control
T/C (dose: 400.0 mg/kg/injection, schedule: Q04DX003 (sc), vehicle: steriod suspending solution): 100 % of control
T/C (dose: 500.0 mg/kg/injection, schedule: Q01DX009 (sc), vehicle: Klucel (hydroxypropylcellulose) (HPC)): 120 % of control
T/C (dose: 800.0 mg/kg/injection, schedule: Q04DX003 (sc), vehicle: steriod suspending solution): 100 % of control and 120 % of control
